Measured values: patent US7311933B2, “Packaging material for inhibiting microbial growth” (Eastman Kodak Company, priority 2004, dated 2007)

Type: physicochemical
From the text: Desferrioxamine B is a commercially available iron chelating drug, desferal®. […] (1980). […] 89, p.

selectivity: difference between the log stability constants | Structure (SMILES)
17.2 | O=C(O)CN(CCN(CC(=O)O)CC(=O)O)CCN(CC(=O)O)CC(=O)O [DTPA, diethylenetriaminepentaacetic acid]
26.8 | O=C(NCCCCN(CCCNC(=O)c1cc(S(=O)(=O)O)cc(O)c1O)C(=O)c1cc(S(=O)(=O)O)cc(O)c1O)c1cc(S(=O)(=O)O)cc(O)c1O [3,4-LICAMS]
